Measurements: paper PMC2810230, “Antiplasmodial Activities of Homogentisic Acid Derivative Protein Kinase Inhibitors Isolated from a Vanuatu Marine Sponge Pseudoceratina sp” (Marine Drugs, 2009)
Where two headings read alike, the source gives them in different places.

Tests used:
[1] = test system: chloroquine-resistant Plasmodium falciparum strain FcB1; test: Activity against erythrocytic stages of cultured P. falciparum (LDH assay); format: cell-based; settings: for IC50: read-out: FCB1 of P. falciparum IC50; for Antiplasmodial activity against FcB1 P. falciparum (in words): in vitro
Experimental: The antiplasmodial activity was studied in vitro against the chloroquine-resistant Plasmodium falciparum strain FcB1 by a micromethod using the lactate deshydrogenase (LDH) assay (Makler and Hinrichs). Parasites were cultivated using the method of Trager and Jensen. Erythrocytes infected with P. falciparum (ring stage, 1% of parasitaemia) were re-suspended in complete culture medium at a haematocrit of 1.5%. The suspension was distributed in 96-well microtitre plates (200 μL per well). Drug testing was performed in triplicate. For each assay, a parasite culture was incubated with the drug for 48 h in 5% CO2 at 95% relative humidity, and frozen until the biochemical assay could be run. After defrosting, a 20 μL sub-sample of the contents of each well was mixed with 100 μL of a substrate solution containing 20 mg/mL of lithium L-lactate (Sigma), 5.5 mg/mL of TRIS (Sigma), and 3.7 mg/mL of 3-acetylpyridine adenine dinucleotide (APAD; Sigma), in the well of another microtitre plate. After incubation for 30 min, 25 μL of a mixture of NBT (1.6 mg/mL; Sigma) and PES (0.1 mg/mL; Sigma) were added to each well. After a further 35 min of incubation, the reaction was stopped by the addition of 25% acetic acid (25 μL per well). Accumulation of the reduced form of APAD was measured at λ = 650 nm, using a spectrophotometer (microplate reader, Metertech). IC50 values were determined graphically in a concentration versus percent inhibition curve.

Pfnek-1 = Pfnek-1 (Plasmodium falciparum, UniProt Q8I5D5); test: Pfnek-1 protein kinase assay (33P incorporation in β-casein); format: biochemical
Sequence of Pfnek-1 (Q8I5D5 entry or part of it): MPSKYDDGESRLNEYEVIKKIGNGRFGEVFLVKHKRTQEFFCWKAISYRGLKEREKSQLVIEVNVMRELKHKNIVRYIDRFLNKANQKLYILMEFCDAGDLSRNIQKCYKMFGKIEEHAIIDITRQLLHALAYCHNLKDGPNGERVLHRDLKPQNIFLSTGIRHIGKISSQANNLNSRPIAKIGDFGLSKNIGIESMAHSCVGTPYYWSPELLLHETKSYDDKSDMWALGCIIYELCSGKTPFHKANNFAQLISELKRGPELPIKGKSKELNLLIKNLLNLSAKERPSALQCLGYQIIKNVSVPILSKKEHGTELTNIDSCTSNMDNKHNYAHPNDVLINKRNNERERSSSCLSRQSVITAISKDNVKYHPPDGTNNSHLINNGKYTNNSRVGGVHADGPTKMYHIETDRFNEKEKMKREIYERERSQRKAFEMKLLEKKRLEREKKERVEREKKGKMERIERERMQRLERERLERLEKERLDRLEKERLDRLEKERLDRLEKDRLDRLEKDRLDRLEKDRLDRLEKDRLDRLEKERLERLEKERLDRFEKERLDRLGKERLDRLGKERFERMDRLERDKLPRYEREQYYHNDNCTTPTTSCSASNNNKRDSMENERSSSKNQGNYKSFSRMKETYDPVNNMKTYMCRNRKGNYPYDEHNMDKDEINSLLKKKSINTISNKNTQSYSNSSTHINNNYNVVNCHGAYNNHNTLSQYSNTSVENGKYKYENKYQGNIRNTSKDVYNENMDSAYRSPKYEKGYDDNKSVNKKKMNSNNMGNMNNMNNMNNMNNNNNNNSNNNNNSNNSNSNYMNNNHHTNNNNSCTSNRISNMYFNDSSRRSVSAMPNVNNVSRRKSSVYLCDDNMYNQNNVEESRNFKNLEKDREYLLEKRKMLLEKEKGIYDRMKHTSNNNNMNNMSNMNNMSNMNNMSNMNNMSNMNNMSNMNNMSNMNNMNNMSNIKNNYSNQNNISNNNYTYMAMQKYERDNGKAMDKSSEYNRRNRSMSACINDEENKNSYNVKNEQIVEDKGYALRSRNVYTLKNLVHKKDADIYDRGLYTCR
Experimental: A GST-Pfnek-1 fusion protein was purified from the Escherichia coli BL21 strain carrying a Pfnek-1 expression plasmid harbouring an ampicillin resistance cassette (bacteria kindly provided by D. Dorin, INSERM 511) as described by Dorin et al.. Pfnek-1 kinase activity was determined by measuring the ^33P incorporation in ß-caseine using γ[^33P]-ATP.
Briefly, test compounds were dissolved in DMSO and diluted in 20 mM Tris, pH 7.5 20 mM MgCl2, 10 mM NaF and 10 mM ATP. β-casein (3 mg/mL) and γ[^33P]-ATP were added prior to the addition of Pfnek-1 to start the kinase reaction. Approximately 5 μCi of γ[^33P]-ATP was used per reaction. After incubation at 30 °C for 30 min, each solution was blotted on a phosphocellulose filter paper (P81 Whatman-cation exchange chromatography paper). After four washes with 1% H3PO4 at, the remaining radioactivity was measured using a liquid scintillation analyzer Packard 1600TR. The IC50 is defined as the concentration of compound which inhibits 50% of enzyme activity compared to the control (reaction in the absence of inhibitor).

[2] = test system: chloroquine-resistant Plasmodium falciparum strain FcB1; set-up: method as in PMID 15124089; settings: isolated from leaves of Glossocalyx brevipes; cited from earlier work
Escherichia coli = test: Antibacterial disc growth inhibition test, E. coli; format: cell-based
Experimental: Activity was evaluated by the standard […] with human pathogenic Staphylococcus aureus and Escherichia coli at 100 μg/disc for a disc of 6 mm diameter (Table 3). […] Bromotyrosine metabolites have already been reported as antibacterials.

Staphylococcus aureus = test: Antibacterial disc growth inhibition test, S. aureus; format: cell-based
[3] = Plasmodium falciparum, FcB1 strain, 48 h incubation, LDH readout
[4] = GST-Pfnek-1, β-casein substrate, 30 °C, 30 min
[5] = FcB1 strain, 48 h incubation, LDH readout
[6] = 100 μg/disc, disc of 6 mm diameter

## O=C1Cc2cc(O)ccc2O1 [Compound 5, 5-Hydroxy-3H-benzofuran-2-one]
[1]; [3]
  IC50: 29 µM
Pfnek-1
  IC50: > 50 µM

## COC(=O)Cc1cc(O)ccc1O [Compound 8, Methyl (2,5-dihydroxyphenyl)acetate]
[1]; [3]
  IC50: 36 µM
Pfnek-1
  Pfnek-1 inhibitory activity (in words): inactive
Pfnek-1; [4]
  IC50: > 50 µM

## Methyl (3,6-dibenzoyl-2,4-dibromophenyl)acetate [Compound 13a]
[1]; [5]
  IC50: 22.5 µM
Pfnek-1
  Pfnek-1 inhibitory activity (in words): inactivity
Pfnek-1; [4]
  IC50: > 50 µM

## COC(=O)CC1(CC=C(C)CCC=C(C)C)CC(O)C=CC1=O (stereo not drawn) [methyl 2-(1′β-geranyl-5′β-hydroxy-2′-oxocyclohex-3-enyl)acetate]
[2]
  Activity against P. falciparum (in words): modest activities

## Methyl (3,6-dibenzoyl-4-bromophenyl)acetate [Compound 13b]
[1]; [5]
  IC50: 13 µM
Pfnek-1
  Pfnek-1 inhibitory activity (in words): inactivity
Pfnek-1; [4]
  IC50: > 50 µM

## COC(=O)Cc1cc(Br)c(O)c(Br)c1O [Compound 12, Methyl (3,5-dibromo-2,4-dihydroxyphenyl)acetate]
[1]; [3]
  IC50: > 100 µM
[1]
  Antiplasmodial activity against FcB1 P. falciparum (in words): inactive
Pfnek-1
  Pfnek-1 inhibitory activity (in words): inactive
Pfnek-1; [4]
  IC50: > 50 µM

## O=C1Cc2c(cc(Br)c(O)c2Br)O1 [Compound 6a, 4,6-Dibromo-5-hydroxy-3H-benzofuran-2-one]
[1]; [3]
  IC50: 35 µM
Pfnek-1
  Pfnek-1 inhibitory activity (in words): inactivity
Pfnek-1; [4]
  IC50: > 50 µM

## COC(=O)Cc1cc(O)c(Br)cc1O [Compound 4b, Methyl (4-bromo-3,6-dihydroxyphenyl)acetate]
[1]; [3]
  IC50: 26 µM
Pfnek-1
  Pfnek-1 inhibitory activity (in words): moderately active
Pfnek-1; [4]
  IC50: 10 µM

## O=C1Cc2cc(O)c(Br)cc2O1 [Compound 6b, 6-bromo-5-hydroxy-3H-benzofuran-2-one]
[1]; [3]
  IC50: 17 µM
Pfnek-1
  Pfnek-1 inhibitory activity (in words): inactivity
Pfnek-1; [4]
  IC50: > 50 µM

## CC(C)=CCCC(C)=CCC1(CC(=O)O)CC(O)C=CC1=O (stereo not drawn) [2-(1′β-geranyl-5′β-hydroxy-2′-oxocyclohex-3′-enyl)acetic acid]
[2]
  Activity against P. falciparum (in words): modest activities

## COC(=O)Cc1c(O)cc(Br)c(O)c1Br [Compound 4a, Methyl (2,4-dibromo-3,6-dihydroxyphenyl)acetate]
[1]; [3]
  IC50: 12 µM
[1]
  Antiplasmodial activity against FcB1 P. falciparum (in words): moderately active
Pfnek-1
  Pfnek-1 activity of 4a relative to 4b: five times more active
  Pfnek-1 inhibitory activity (in words): most active
Pfnek-1; [4]
  IC50: ~1.8 µM
Escherichia coli; 100 μg/disc
  Antibacterial activity against E. coli (in words): inactive
Escherichia coli; [6]
  Growth inhibition diameter, E. coli: 0 mm
Staphylococcus aureus; 100 μg/disc
  Antibacterial activity against S. aureus (in words): inactive
Staphylococcus aureus; [6]
  Growth inhibition diameter, S. aureus: 0 mm

## COC1=C(Br)[C@H](O)[C@@]2(C=C1Br)CC(C(=O)NCCCOc1c(Br)cc(C(O)CNC(=O)C3=NO[C@]4(C=C(Br)C(OC)=C(Br)[C@@H]4O)C3)cc1Br)=NO2 (stereo partly shown) [Compound 2, 11-deoxyfistularin-3]
[1]; [3]
  IC50: > 100 µM
Pfnek-1
  Pfnek-1 inhibitory activity (in words): inactive
Pfnek-1; [4]
  IC50: > 50 µM
Escherichia coli; [6]
  Growth inhibition diameter, E. coli: 0 mm
Staphylococcus aureus; [6]
  Growth inhibition diameter, S. aureus: 0 mm

## COC1=C(Br)[C@H](O)[C@@]2(C=C1Br)CC(C(=O)NCCCOc1c(Br)cc(CCNC(=O)C3=NO[C@]4(C=C(Br)C(OC)=C(Br)[C@@H]4O)C3)cc1Br)=NO2
[1]; Plasmodium falciparum, FCB1, 48 h
  IC50: > 100 µM
Pfnek-1
  Pfnek-1 inhibitory activity (in words): inactive
Pfnek-1; [4]
  IC50: > 50 µM
Escherichia coli; 100 μg/disc
  Antibacterial activity against E. coli (in words): strong antibacterial activities
Escherichia coli; [6]
  Growth inhibition diameter, E. coli: 16 mm
Staphylococcus aureus; 100 μg/disc
  Antibacterial activity against S. aureus (in words): strong antibacterial activities
Staphylococcus aureus; [6]
  Growth inhibition diameter, S. aureus: 14 mm

## gentamycin [reference compound]
Staphylococcus aureus; 10 μg/disc
  Growth inhibition diameter, S. aureus: 16 mm

## O=C(N[C@H](CO)[C@H](O)c1ccc([N+](=O)[O-])cc1)C(Cl)Cl [chloramphenicol, reference compound]
Escherichia coli; 30 μg/disc
  Growth inhibition diameter, E. coli: 17 mm
